Data on five molecules can be found in PMC10996807 (Research Square, 2024).

Converted amounts (≈) assume the structure as drawn. Bounds are passed on as bounds.

One assay deals with B. anthracis. In words: microbe, parasite or virus in culture. Format: cell-based. Conditions: for MIC50 / MIC90: Bacillus anthracis.
In assay [1] the test system is B. anthracis Ames NR3838 spores. Details: species or system New Zealand White rabbits. The settings on record: rabbit, in vivo.
For a further assay, the system named is B. anthracis Sterne. Format: cell-based, Bacillus anthracis.

As for `O=C(O)c1cn(C2CC2)c2cc(N3CCNCC3)c(F)cc2c1=O` [Ciprofloxacin], in the assay on B. anthracis, the “MIC Range” value was 0.06 to 4 µg/mL, the MIC50 came to 0.12 µg/mL (≈ 0.362 µM) and the MIC90 was 0.5 µg/mL (≈ 1.51 µM).

On to `C[C@H]1c2cccc(O)c2C(=O)C2=C(O)[C@]3(O)C(=O)C(C(N)=O)=C(O)[C@@H](N(C)C)[C@@H]3[C@@H](O)[C@@H]21` [Doxycycline], for which, in the assay on B. anthracis, the “MIC Range” value is ≤0.008 to 0.12 µg/mL, the MIC50 was 0.03 µg/mL (≈ 0.0675 µM) and the MIC90 came out at 0.06 µg/mL (≈ 0.135 µM).

Regarding `C[C@@H](O)[C@H]1C(=O)N2C(C(=O)O)=C(SCCN=CN)C[C@H]12` [Imipenem], in the assay with B. anthracis, the “MIC Range” value lay in the range of 0.03 to 1 µg/mL, the MIC50 is 0.06 µg/mL (≈ 0.2 µM) and the MIC90 came out at 0.12 µg/mL (≈ 0.401 µM).

On to `C[C@H]1COc2c(N3CCN(C)CC3)c(F)cc3c(=O)c(C(=O)O)cn1c23` [Levofloxacin], for which, in the assay with B. anthracis, the “MIC Range” value lay within 0.06 to 1 µg/mL, the MIC50 is 0.12 µg/mL (≈ 0.332 µM) and the MIC90 worked out at 0.5 µg/mL (≈ 1.38 µM). Further, the histopathology lesions result in assay [1] (12.5 mg/kg) was “mitigated lesions”. Moreover, the “efficacious dose in rabbits” value in assay [1] (iv) is on record as 12.5 mg/kg.

With Lys(Bodipy FL)10-teixobactin, in the assay with B. anthracis Sterne, the “effect of washing on preformed supramolecular structures” value is “no apparent effect” and the “formation of supramolecular structures” value is listed as “apparent”.
